Our source for the remaining activity values is PMC8286840, “Identifying SARS-CoV-2 antiviral compounds by screening for small molecule inhibitors of Nsp3 papain-like protease” (Biochemical Journal, 2021).

Assay [1] concerns the target T1, SARS-CoV-2 PLpro (nsp3 1564–1878) (Severe acute respiratory syndrome coronavirus 2, UniProt P0DTD1). As to the kind of experiment: biochemical. Also on record: FRET-quenched peptide (Pro3) cleavage by PLpro, 10 min pre-incubation, slope over 20 min, normalised to no-compound control. The conditions noted are these: low concentration screen, read-out: % of control remaining.

In assay [2] the target is T1, SARS-CoV-2 PLpro (nsp3 1564–1878). The assay is described as follows: biochemical. Also on record: FRET-quenched peptide (Pro3) cleavage by PLpro, 10 min pre-incubation, slope over 20 min, normalised to no-compound control. The conditions noted are these: high concentration screen, read-out: % of control remaining.

Counter-ions that a name gives are not always drawn. Like-named read-outs stand apart in the source and are kept apart here.

With `N#Cc1cnc2cnc(NCc3cccnc3)cc2c1Nc1ccc(F)c(Cl)c1` [Tpl2 Kinase Inhibitor], the remaining activity at 1.25 µM in assay [1] (Well no.=2662) turned out to be 92.4%. For the same compound, in assay [2] (Well no.=2662), the remaining activity at 3.75 µM came to 89.7%.
Take `CCCCNc1c(C(=O)OCC)c(C)nc2c1cnn2CC` [Tracazolate]: the remaining activity at 1.25 µM in assay [1] (Well no.=1472) came out at 93.2%. Moreover, in assay [2] (Well no.=1472), the remaining activity at 3.75 µM amounted to 93.7%.
Regarding `COc1cccc([C@@]2(O)CCCC[C@@H]2CN(C)C)c1` [Tramadol], the remaining activity at 1.25 µM in assay [1] (Well no.=2002) came to 104%. In assay [2] (Well no.=2002), the remaining activity at 3.75 µM is 104%.
In the case of `NC[C@H]1CC[C@H](C(=O)O)CC1` [Tranexamic acid], the remaining activity at 1.25 µM in assay [1] (Well no.=1816) was 97.3%. Moreover, in assay [2] (Well no.=1816), the remaining activity at 3.75 µM turned out to be 99.8%.
On to `COc1ccc(/C=C/C(=O)Nc2ccccc2C(=O)O)cc1OC` [Tranilast (trans-)], for which, in assay [1] (Well no.=7917), the remaining activity at 1.25 µM was found to be 92.9%. Moreover, the remaining activity at 3.75 µM in assay [2] (Well no.=7917) was determined as 92%.
In the case of `COc1ccc(/C=C/C(=O)Nc2ccccc2C(=O)O)cc1OC` [Tranilast], the figures for the remaining activity at 1.25 µM in assay [1] (Well no.=1519), in assay [1] (Well no.=1807) and in assay [1] (Well no.=6317) were 95.4%, 96.3% and 104%, respectively. The results for the remaining activity at 3.75 µM in assay [2] (Well no.=1519), in assay [2] (Well no.=1807) and in assay [2] (Well no.=6317) were 94.6%, 96.1% and 97.4%, respectively.
Turning to `CN1C(=O)C[C@H](C(=O)O)[C@H]1c1cccnc1` [Trans-4-Cotininecarboxylic acid], the remaining activity at 1.25 µM in assay [1] (Well no.=3200) was determined as 95.4%. In addition, in assay [2] (Well no.=3200), the remaining activity at 3.75 µM was found to be 97.7%.
In the case of `N[C@@H]1C[C@H]1c1ccccc1` [Tranylcypromine hydrochloride], the remaining activity at 1.25 µM in assay [1] (Well no.=1399) came out at 100%. Further, the remaining activity at 3.75 µM in assay [2] (Well no.=1399) amounted to 105%.
For the compound `O=c1n(CCCN2CCN(c3cccc(Cl)c3)CC2)nc2ccccn12` [Trazodone (hydrochloride)], the remaining activity at 1.25 µM in assay [1] (Well no.=7432) came to 109%. Also, in assay [2] (Well no.=7432), the remaining activity at 3.75 µM came to 111%.
Consider `O=c1n(CCCN2CCN(c3cccc(Cl)c3)CC2)nc2ccccn12` [Trazodone hydrochloride], for which, in assay [1] (Well no.=1339), the remaining activity at 1.25 µM is 102%. In assay [2] (Well no.=1339), the remaining activity at 3.75 µM worked out at 104%.
As for `Cn1c(=O)cc(N2CCC[C@@H](N)C2)n(Cc2cc(F)ccc2C#N)c1=O` [Trelagliptin], the remaining activity at 1.25 µM in assay [1] (Well no.=8480) was determined as 99.1%. The remaining activity at 3.75 µM in assay [2] (Well no.=8480) was 98.9%.
As to `COc1cc2c(cc1OC)-c1c/c(=N\c3c(C)cc(C)cc3C)n(C)c(=O)n1CC2` [Trequinsin hydrochloride], the remaining activity at 1.25 µM in assay [1] (Well no.=1379) came to 98.6%. For the same compound, the remaining activity at 3.75 µM in assay [2] (Well no.=1379) was 97.1%.
For `CC1(C)O[C@@H]2C[C@H]3[C@@H]4CCC5=CC(=O)C=C[C@]5(C)[C@@]4(F)[C@@H](O)C[C@]3(C)[C@]2(C(=O)CO)O1` [Triamcinolone (acetonide)], the remaining activity at 1.25 µM in assay [1] (Well no.=6574) amounted to 105%. Further, the remaining activity at 3.75 µM in assay [2] (Well no.=6574) amounted to 108%.
Turning to `C[C@]12C=CC(=O)C=C1CC[C@H]1[C@@H]3C[C@@H](O)[C@](O)(C(=O)CO)[C@@]3(C)C[C@H](O)[C@@]12F` [Triamcinolone], the remaining activity at 1.25 µM was 98.1% in assay [1] (Well no.=1435), 108% in assay [1] (Well no.=2004) and 94.8% in assay [1] (Well no.=6419). Further, the remaining activity at 3.75 µM amounted to 100% in assay [2] (Well no.=1435), 106% in assay [2] (Well no.=2004) and 96.2% in assay [2] (Well no.=6419).
For `Nc1nc(N)c2nc(-c3ccccc3)c(N)nc2n1` [Triamterene], in assay [1] (Well no.=1525), the remaining activity at 1.25 µM amounted to 94%. The remaining activity at 3.75 µM in assay [2] (Well no.=1525) was found to be 91.1%.
With `NS(=O)(=O)c1cc2c(cc1Cl)NC(C(Cl)Cl)NS2(=O)=O` (stereo not shown) [Trichlormethiazide], in assay [1] (Well no.=8656), the remaining activity at 1.25 µM turned out to be 102%. Further, the remaining activity at 3.75 µM in assay [2] (Well no.=8656) was found to be 99.7%.
Take `NS(=O)(=O)c1cc2c(cc1Cl)NC(C(Cl)Cl)NS2(=O)=O` (stereo not shown) [Trichloromethiazide]: the remaining activity at 1.25 µM in assay [1] (Well no.=2072) was found to be 101%. Also, in assay [2] (Well no.=2072), the remaining activity at 3.75 µM came to 100%.
In the case of `CC(C)[C@H]1C(=O)O[C@@H]2CCN3CC=C(COC(=O)[C@](C)(O)[C@]1(C)O)[C@H]23` [Trichodesmine], the remaining activity at 1.25 µM in assay [1] (Well no.=3205) turned out to be 105%. Moreover, the remaining activity at 3.75 µM in assay [2] (Well no.=3205) is 106%.
Turning to `CC(/C=C/C(=O)NO)=C\[C@@H](C)C(=O)c1ccc(N(C)C)cc1` [Trichostatin A (TSA)], the remaining activity at 1.25 µM in assay [1] (Well no.=4617) was 106%. Besides, the remaining activity at 3.75 µM in assay [2] (Well no.=4617) came to 107%.
For the compound `Oc1cc(Cl)ccc1Oc1ccc(Cl)cc1Cl` [Triclosan], the remaining activity at 1.25 µM in assay [1] (Well no.=8252) is 101%. The remaining activity at 3.75 µM in assay [2] (Well no.=8252) worked out at 98.2%.
Consider `CCCCCCCCCCCCCCCCCCCCCCC(=O)O` [Tricosanoic acid], for which the remaining activity at 1.25 µM in assay [1] (Well no.=4496) turned out to be 91.3%. Also, the remaining activity at 3.75 µM in assay [2] (Well no.=4496) came to 92.7%.
In the case of `CCCCCCCCCCCCC(=O)O` [Tridecanoic acid], in assay [1] (Well no.=4260), the remaining activity at 1.25 µM was determined as 106%. In addition, in assay [2] (Well no.=4260), the remaining activity at 3.75 µM was 98%.
For the compound `CN1CCN(CCCN2c3ccccc3Sc3ccc(C(F)(F)F)cc32)CC1` [Trifluoperazine (dihydrochloride)], the remaining activity at 1.25 µM in assay [1] (Well no.=6369) came to 105%. Moreover, the remaining activity at 3.75 µM in assay [2] (Well no.=6369) was determined as 105%.
As to `CN1CCN(CCCN2c3ccccc3Sc3ccc(C(F)(F)F)cc32)CC1` [Trifluoperazine dihydrochloride], in assay [1] (Well no.=1326), the remaining activity at 1.25 µM worked out at 101%. For the same compound, the remaining activity at 3.75 µM in assay [2] (Well no.=1326) stood at 100%.
On to `O=C(CCCN1CCC(O)(c2cccc(C(F)(F)F)c2)CC1)c1ccc(F)cc1` [Trifluperidol hydrochloride], for which, in assay [1] (Well no.=1376), the remaining activity at 1.25 µM came out at 96.4%. In addition, the remaining activity at 3.75 µM in assay [2] (Well no.=1376) turned out to be 94.4%.
For the compound `O=C(CCCN1CCC(O)(c2cccc(C(F)(F)F)c2)CC1)c1ccc(F)cc1` [Trifluperidol], the remaining activity at 1.25 µM in assay [1] (Well no.=2296) came out at 95.3%. Further, in assay [2] (Well no.=2296), the remaining activity at 3.75 µM worked out at 96.6%.
In the case of `CN(C)CCCN1c2ccccc2Sc2ccc(C(F)(F)F)cc21` [Triflupromazine (hydrochloride)], the remaining activity at 1.25 µM in assay [1] (Well no.=6373) came to 105%. The remaining activity at 3.75 µM in assay [2] (Well no.=6373) was determined as 103%.
For the compound `O=c1[nH]c(=O)n([C@H]2C[C@H](O)[C@@H](CO)O2)cc1C(F)(F)F` [Trifluridine], the results for the remaining activity at 1.25 µM in assay [1] (Well no.=6438) and in assay [1] (Well no.=8058) were 98% and 85.9%, respectively. Besides, the remaining activity at 3.75 µM in assay [2] (Well no.=6438) turned out to be 98.3%; in assay [2] (Well no.=8058), 86.7%.
Regarding `CC(=O)Oc1cc(C(F)(F)F)ccc1C(=O)O` [Triflusal], the remaining activity at 1.25 µM in assay [1] (Well no.=4942) stood at 98.7%. In addition, the remaining activity at 3.75 µM in assay [2] (Well no.=4942) stood at 96.4%.
As to `OC(CCN1CCCCC1)(c1ccccc1)C1CCCCC1` (stereo not shown) [Trihexyphenidyl (hydrochloride)], the remaining activity at 1.25 µM in assay [1] (Well no.=6375) came to 105%. In addition, the remaining activity at 3.75 µM in assay [2] (Well no.=6375) was 105%.
